Test results reported in patent US11512053B2, “Arginine methyltransferase inhibitors and uses thereof” (priority 2013, dated 2022).

Target: full-length human PRMT6 (Flag- and His-tagged) (Homo sapiens, UniProt Q96LA8)
Assay: PRMT6 Biochemical Assay (3H-SAM Flashplate, peptide substrate)
Details: single experiment or average of multiple experiments; read-out: Biochemical IC50 PRMT6
How it was run: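 Flag/His-tagged full-length human PRMT6 (1 nM) preincubated with compound 30 min at room temperature in Bicine pH 7.6 buffer, then reaction started with 3H-SAM 200 nM plus unlabeled SAM 250 nM and biotinylated H4 36-50 peptide (K44me1) 75 nM; 2% DMSO. Quenched with 400 uM cold SAM; labeled peptide captured on streptavidin Flashplate, counted; % inhibition vs DMSO and 1 mM SAH controls fit by 3- or 4-parameter curve.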

full-length human PRMT6 (Flag- and His-tagged), sequence (Q96LA8 with tags, fused parts or gaps): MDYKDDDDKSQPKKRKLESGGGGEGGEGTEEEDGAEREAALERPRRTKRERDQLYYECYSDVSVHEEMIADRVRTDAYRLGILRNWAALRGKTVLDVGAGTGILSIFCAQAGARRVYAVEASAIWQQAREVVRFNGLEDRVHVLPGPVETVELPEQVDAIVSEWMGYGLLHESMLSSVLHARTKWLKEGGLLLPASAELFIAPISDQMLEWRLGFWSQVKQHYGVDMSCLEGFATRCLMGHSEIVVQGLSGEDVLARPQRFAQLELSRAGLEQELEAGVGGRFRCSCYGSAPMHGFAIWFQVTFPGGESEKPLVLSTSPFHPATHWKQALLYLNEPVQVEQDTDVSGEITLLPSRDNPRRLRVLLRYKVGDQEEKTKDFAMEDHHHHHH

CNCCN(C)Cc1c[nH]nc1C#Cc1ccccc1 [Compound 3]
IC50: 20 nM
